± gives the expanded uncertainty stated by the source.
Test: xn = mol fraction of the nth substance listed
Conditions: for surface tension liquid-gas: Ring tensiometer; for mass density: 101 kPa, Liquid

CC#N [acetonitrile] + CCCO
Conditions	mass density [kg/m3]	surface tension liquid-gas [mN/m]
278.15 K, x1 = 0.1255	813.41 ± 1.8	25.2 ± 0.4
278.15 K, x1 = 0.2452	810.66 ± 1.8	25.4 ± 0.4
278.15 K, x1 = 0.3466	808.33 ± 1.8	25.8 ± 0.4
278.15 K, x1 = 0.4995	804.81 ± 1.9	26.5 ± 0.4
278.15 K, x1 = 0.6449	801.47 ± 1.9	27.4 ± 0.4
278.15 K, x1 = 0.7492	799.07 ± 1.9	28.1 ± 0.4
278.15 K, x1 = 0.8645	796.42 ± 1.9	29.1 ± 0.5
278.15 K, x1 = 0.9101	795.37 ± 1.9	29.5 ± 0.5
278.15 K, x1 = 1	793.3 ± 1.9	30.5 ± 0.5
283.15 K, x1 = 0.1255	809.44 ± 1.8	24.8 ± 0.4
283.15 K, x1 = 0.2452	806.61 ± 1.8	25 ± 0.4
283.15 K, x1 = 0.3466	804.22 ± 1.9	25.4 ± 0.4
283.15 K, x1 = 0.4995	800.61 ± 1.9	26.1 ± 0.4
283.15 K, x1 = 0.6449	797.18 ± 1.9	27 ± 0.4
283.15 K, x1 = 0.7492	794.72 ± 1.9	27.7 ± 0.4
283.15 K, x1 = 0.8645	792 ± 1.9	28.7 ± 0.5
283.15 K, x1 = 0.9101	790.92 ± 1.9	29.1 ± 0.5
283.15 K, x1 = 1	788.8 ± 1.9	30.1 ± 0.5
288.15 K, x1 = 0.1255	805.55 ± 1.8	24.4 ± 0.4
288.15 K, x1 = 0.2452	802.64 ± 1.9	24.7 ± 0.4
288.15 K, x1 = 0.3466	800.18 ± 1.9	25 ± 0.4
288.15 K, x1 = 0.4995	796.46 ± 1.9	25.7 ± 0.4
288.15 K, x1 = 0.6449	792.93 ± 1.9	26.6 ± 0.4
288.15 K, x1 = 0.7492	790.39 ± 1.9	27.3 ± 0.4
288.15 K, x1 = 0.8645	787.59 ± 1.9	28.3 ± 0.4
288.15 K, x1 = 0.9101	786.48 ± 2	28.7 ± 0.5
288.15 K, x1 = 1	784.3 ± 2	29.7 ± 0.5
293.15 K, x1 = 0.1255	799.41 ± 1.9	24 ± 0.4
293.15 K, x1 = 0.2452	796.56 ± 1.9	24.3 ± 0.4
293.15 K, x1 = 0.3466	794.15 ± 1.9	24.6 ± 0.4
293.15 K, x1 = 0.4995	790.51 ± 1.9	25.3 ± 0.4
293.15 K, x1 = 0.6449	787.05 ± 1.9	26.2 ± 0.4
293.15 K, x1 = 0.7492	784.57 ± 2	26.9 ± 0.4
293.15 K, x1 = 0.8645	781.82 ± 2	27.9 ± 0.4
293.15 K, x1 = 0.9101	780.74 ± 2	28.3 ± 0.4
293.15 K, x1 = 1	778.3 ± 2	29.3 ± 0.5
298.15 K, x1 = 0.1255	796.74 ± 1.9	23.6 ± 0.4
298.15 K, x1 = 0.2452	794.01 ± 1.9	23.9 ± 0.4
298.15 K, x1 = 0.3466	791.7 ± 1.9	24.2 ± 0.4
298.15 K, x1 = 0.4995	788.21 ± 1.9	24.9 ± 0.4
298.15 K, x1 = 0.6449	784.9 ± 2	25.8 ± 0.4
298.15 K, x1 = 0.7492	782.52 ± 2	26.6 ± 0.4
298.15 K, x1 = 0.8645	779.89 ± 2	27.5 ± 0.4
298.15 K, x1 = 0.9101	778.85 ± 2	27.9 ± 0.4
298.15 K, x1 = 1	776.75 ± 2	28.9 ± 0.5
303.15 K, x1 = 0.1255	792.49 ± 1.9	23.2 ± 0.4
303.15 K, x1 = 0.2452	789.62 ± 1.9	23.5 ± 0.4
303.15 K, x1 = 0.3466	787.18 ± 1.9	23.8 ± 0.4
303.15 K, x1 = 0.4995	783.51 ± 2	24.5 ± 0.4
303.15 K, x1 = 0.6449	780.02 ± 2	25.4 ± 0.4
303.15 K, x1 = 0.7492	777.52 ± 2	26.2 ± 0.4
303.15 K, x1 = 0.8645	774.75 ± 2	27.1 ± 0.4
303.15 K, x1 = 0.9101	773.66 ± 2	27.5 ± 0.4
303.15 K, x1 = 1	771.5 ± 2	28.5 ± 0.4
308.15 K, x1 = 0.1255	789.47 ± 1.9	22.8 ± 0.4
308.15 K, x1 = 0.2452	786.3 ± 2	23.1 ± 0.4
308.15 K, x1 = 0.3466	783.62 ± 2	23.4 ± 0.4
308.15 K, x1 = 0.4995	779.56 ± 2	24.2 ± 0.4
308.15 K, x1 = 0.6449	775.71 ± 2	25 ± 0.4
308.15 K, x1 = 0.7492	772.95 ± 2	25.8 ± 0.4
308.15 K, x1 = 0.8645	769.89 ± 2	26.7 ± 0.4
308.15 K, x1 = 0.9101	768.68 ± 2.1	27.1 ± 0.4
308.15 K, x1 = 1	766.3 ± 2.1	28.1 ± 0.4
313.15 K, x1 = 0.1255	783.74 ± 2	22.4 ± 0.4
313.15 K, x1 = 0.2452	780.62 ± 2	22.7 ± 0.4
313.15 K, x1 = 0.3466	777.99 ± 2	23 ± 0.4
313.15 K, x1 = 0.4995	774.01 ± 2	23.8 ± 0.4
313.15 K, x1 = 0.6449	770.23 ± 2	24.6 ± 0.4
313.15 K, x1 = 0.7492	767.52 ± 2.1	25.4 ± 0.4
313.15 K, x1 = 0.8645	764.52 ± 2.1	26.3 ± 0.4
313.15 K, x1 = 0.9101	763.34 ± 2.1	26.8 ± 0.4
313.15 K, x1 = 1	761 ± 2.1	27.7 ± 0.4

Source: the NIST ThermoML archive (doi:10.1007/s10765-009-0581-7)
